Assay results: patent US6322789A, “HLA-restricted hepatitis B virus CTL epitopes” (Epimmune, Inc., priority 1995, dated 2001)
No end group written: not given here.

Experiments:
[1] = system: B10.D2 fibroblasts in the presence of NP 148-155 peptide; experiment: CTL immunogenicity of modifications and formulations of PR8-NP 148-155 (Table I); type: in vivo, Balb/c mouse; details: in words
Method: Three weeks after immunization splenocytes were removed and stimulated in vitro with the flu 147-155 peptide. CTL activity was assayed one week later using ^51 Cr-labeled B10.D2 fibroblasts as targets. Target cells were tested in the absence of antigen, in the presence of Flu 147-155 peptide or following infection with influenza PR8 virus.
^b = CTL immunogenicity of various modifications and formulations of NP
result obtained from spleen cells derived from a single Balb/c mouse and
# the effector to target ratio (E:T) required to induce 40% antigen
specific lysis of ^51 Cr labeled B10D2 target cells in the presence of
ND148-155 peptide; +++ E:T below 10:1; ++ E + T between 10 + 1 and […]

[2] = system: Jurkat A2-1/Kb target cells; Jy target cells; Jy cells transfected with HBV core; design: species or system HLA-A2-1/kb transgenic mice; details: mouse, in vivo, sc
[3] = system: Jurkat A2.1/K^b target cells; experiment: CTL lysis after restimulation of splenocytes from mice primed with HBV-loaded spleen cells (Example I); type: cell-based, A2.1/K^b transgenic mice (effector cells); details: for representation of CTL epitopes: conclusion of Example I, FIGS. 1 and 2; for CTL lysis of Jurkat A2/K^b target cells: individual peptides, FIG. 1 panels E through H
[4] = system: Jurkat A2.1/K^b target cells; experiment: CTL induction from splenocytes of mice primed subcutaneously with purified HBV in IFA (Example II); type: cell-based, A2.1/K^b transgenic mice (effector cells); details: for ability to induce in vitro CTL from splenocytes of HBV-primed mice: FIGS. 3 and 4
[5] = system: Jurkat A2/K^b target cells; experiment: In vivo HBc 18-27-specific CTL priming by CTL and T helper epitopes (Example IV); design: species or system HLA-A2.1/K^b transgenic mice; details: for magnitude of HBc18-27-specific CTL activity relative to other immunogens: comparison in words; for requirement of prior T helper priming for CTL priming: without previous priming with 875.23 in CFA; for HBc18-27-specific CTL response: 100 μg subcutaneously, transgenic mice
Method: Animals were primed subcutaneously with 100 μg of 875.23 (T helper epitope) in Complete Freund's Adjuvant (CFA) followed 9 days later (subcutaneously) with […]. Splenocytes were removed 3 weeks later, cultured for 6 days in the presence of LPS-blasts that had been incubated with the CTL epitope (875.15), 100 μg for 2 hrs before being washed and added to the culture as a source of antigen presenting cells. The presence of HBc 18-27 (875.15)-specific CTL was determined using a standard 6 hr […] release assay with Jurkat A2.1/K^b cells as targets.
This example describes experiments which define the relative in vivo HBV-specific CTL priming efficiency of peptides expressing HBV CTL epitopes alone, CTL epitopes mixed with peptides containing T helper epitopes or CTL epitopes physically linked to T helper epitopes.
Nine days later each of the following peptides were injected subcutaneously into two unprimed and two helper-primed mice, 100 μg/mouse in incomplete Freund's adjuvant (IFA).
Three weeks after priming with the CTL epitope, splenocytes were in vitro restimulated with LPS blasts coated with HBc 18-27 (coating was achieved by incubating 30×10^6 LPS blasts with 100 μg of HBc18-27 in one ml of medium; after 1-2 hr at 37° C., the cells were washed). After 6 days, effector cells were assayed for lytic activity against ^51 Cr labelled Jurkat A2 /K^b target cells in the presence or absence of HBc18-27.

ovalbumin-specific CTL = details: cited from earlier work
[6] = listed as linked peptides without spacer

Substance: (PAM)2 KSS-ISQAVHAAHAEINE-AAA-TYQRTRALV ({(PAM)2}-KSSISQAVHAAHAEINEAAATYQRTRALV) [Peptide 932.05]
- comparison of constructs and formulations [1]: superior when injected in saline or Alum compared to all of the other combinations

Substance: (PAM)2 KSSISQAVHAAHAEINE-TYQRTRALV ({(PAM)2}-KSSISQAVHAAHAEINETYQRTRALV) [Peptide 932.04]
- comparison of constructs and formulations [1]: superior when injected in saline or Alum compared to all of the other combinations

Substance: Ac-Gln-Tyr-Ile-Lys-Ala-Asn-Ser-Lys-Phe-Ile-Gly-Ile-Thr-Glu-Ala-Ala-Ala-Phe-Leu-Pro-Ser-Asp-Phe-Phe-Pro-Ser-Val-OH (Ac-QYIKANSKFIGITEAAAFLPSDFFPSV-OH) [Peptide 934.02]
- CTL response specific for HBc 18-27 [2]: induction of a CTL response specific for HBc 18-27

Substance: Asn-Cys-Thr-Cys-Ile-Pro-Ile-Pro-Ser-Ser-Trp-Ala-Phe-Gly-Lys-Phe-Leu-Trp-Glu-Trp [Peptide 799.08]
- CTL response and its MHC class I mediation [3]: induces a CTL response which is mediated by at least the MHC class I molecule HLA-A2
- representation of CTL epitopes [3]: clearly represent CTL epitopes
- CTL lysis of Jurkat A2/K^b target cells [3]: induced CTL lysis of Jurkat A2 /K^b target cells above background

Substance: ISQAVHAAHAEINE-AAA-TYQRTRALV (ISQAVHAAHAEINEAAATYQRTRALV) [Peptide 932.03]
- comparison of constructs and formulations [1]: superior to mixing the T helper+CTL (i.e., non-linked) and worked well in IFA, but not well in saline or Alum

Substance: ISQAVHAAHAEINE-TYQRTRALV (ISQAVHAAHAEINETYQRTRALV) [Peptide 932.02]
- comparison of constructs and formulations [1]: superior to mixing the T helper+CTL (i.e., non-linked) and worked well in IFA, but not well in saline or Alum

Substance: LSPTVWLSVI [Peptide 884.02]
- recognition of truncation peptides by CTL raised against the larger peptide [4]: recognized by the CTL raised against the larger epitopes
- ability to induce in vitro CTL from splenocytes of HBV-primed mice [4]: clearly able to induce in vitro CTL

Substance: LSPTVWLSVIWMMWYWGPSL [Peptide 799.10]
- representation of CTL epitopes [3]: defined as containing CTL epitopes
- representation of CTL epitopes ([3]; listed as HBenv 349-368): clearly represent CTL epitopes
- CTL lysis of Jurkat A2/K^b target cells [3]: induced CTL lysis of Jurkat A2 /K^b target cells above background
- ability to induce in vitro CTL from splenocytes of HBV-primed mice [4]: clearly able to induce in vitro CTL

Substance: MGLKFRQLLW [Peptide 883.03]
- recognition of truncation peptides by CTL raised against the larger peptide [4]: recognized by the CTL raised against the larger epitopes
- ability to induce in vitro CTL from splenocytes of HBV-primed mice [4]: clearly able to induce in vitro CTL

Substance: NMGLKFRQLL [Peptide 883.02]
- recognition of truncation peptides by CTL raised against the larger peptide [4]: recognized by the CTL raised against the larger epitopes
- ability to induce in vitro CTL from splenocytes of HBV-primed mice [4]: clearly able to induce in vitro CTL

Substance: TPPAYRPPNAPILAAAFLPSDFFPSV-NH2 [Peptide 902.02]
- magnitude of HBc18-27-specific CTL activity relative to other immunogens [5]: greatest HBc18-27 (875.15)-specific CTL activity was detected
- magnitude of HBc18-27-specific CTL activity relative to other immunogens ([5]; listed as T helper and CTL HBV peptides were linked by a Ala-Ala-Ala spacer): specific CTL activity greater than induction of specific CTL activity with the linked peptides without spacer
- magnitude of HBc18-27-specific CTL activity relative to other immunogens ([5]; listed as T helper and CTL epitopes via an alanine-alanine-alanine spacer): specific CTL activity greater than that detected by linking the T helper and CTL determinants alone
- requirement of prior T helper priming for CTL priming [5]: previous priming of helper T cells was not required

Substance: TPPAYRPPNAPILFLPSDFFPSV-NH2 [Peptide 902.01]
- HBc18-27-specific CTL response [5]: HBc-specific (875.15) CTL activity was detected
- HBc18-27-specific CTL response [5, 6]: induce specific CTL priming of animals in all animals studied
- animals with HBc18-27-specific CTL response ([5]; 100 μg/mouse in IFA subcutaneously): 100%
- magnitude of HBc18-27-specific CTL activity relative to other immunogens ([5]; listed as T helper epitope linked to the CTL epitope): greater than that detected when the epitopes were administered non-linked
- magnitude of HBc18-27-specific CTL activity relative to other immunogens [5, 6]: at levels which were greater than when the CTL peptide and T helper peptide were administered unlinked
- requirement of prior T helper priming for CTL priming [5]: previous priming of helper T cells was not required

Substance: Thr-Asn-Met-Gly-Leu-Lys-Phe-Arg-Gln-Leu-Leu-Trp-Phe-His-Ile-Ser-Cys-Leu-Thr-Phe [Peptide 802.03]
- CTL response and its MHC class I mediation [3]: induces a CTL response which is mediated by at least the MHC class I molecule HLA-A2.1
- representation of CTL epitopes [3]: defined as containing CTL epitopes
- representation of CTL epitopes ([3]; listed as HBc 91-110): clearly represent CTL epitopes
- CTL lysis of Jurkat A2/K^b target cells [3]: induced CTL lysis of Jurkat A2 /K^b target cells above background
- ability to induce in vitro CTL from splenocytes of HBV-primed mice [4]: clearly able to induce in vitro CTL

Substance: Thr-Pro-Pro-Ala-Tyr-Arg-Pro-Pro-Asn-Ala-Pro-Ile-Leu (TPPAYRPPNAPIL) [Peptide 875.23]
- HBc18-27-specific CTL response [5]: no HBc18-27-specific CTL response is detected
- HBc18-27-specific CTL response ([5]; listed as T helper peptide): did not induce HBc-specific CTL

Substance: ovalbumin: ovalbumin (OVA) in IFA
- generation of CTL (ovalbumin-specific CTL; i.v. or i.p.): generally does not lead to the generation of CTL
- ovalbumin-specific CTL response (ovalbumin-specific CTL; in IFA subcutaneously): induces an ovalbumin-specific CTL response in mice
